Assay results reported in patent US20230365592A1 (Agios Pharmaceuticals, Inc., priority 2022, published 2023).

Target: T1, human PAH with the R408W mutation (Homo sapiens, UniProt P00439, R408W)
T1 construct: expressed in transfected cells
T1 sequence (P00439 1-452 R408W): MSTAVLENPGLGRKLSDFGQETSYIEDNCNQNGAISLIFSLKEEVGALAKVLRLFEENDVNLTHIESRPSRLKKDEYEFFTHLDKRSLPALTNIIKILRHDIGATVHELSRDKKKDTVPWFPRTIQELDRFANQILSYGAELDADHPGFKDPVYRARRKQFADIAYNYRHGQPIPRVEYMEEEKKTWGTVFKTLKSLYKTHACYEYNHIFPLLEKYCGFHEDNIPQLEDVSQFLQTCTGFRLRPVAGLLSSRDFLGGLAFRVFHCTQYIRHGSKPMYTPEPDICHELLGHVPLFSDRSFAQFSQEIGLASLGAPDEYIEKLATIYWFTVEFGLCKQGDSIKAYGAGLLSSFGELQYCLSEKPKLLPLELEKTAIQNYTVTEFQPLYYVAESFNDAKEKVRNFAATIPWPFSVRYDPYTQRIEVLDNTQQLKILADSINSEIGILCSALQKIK
Experiment: Cell Based Phenylalanine Flux Assay;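 also: after compound treatment, cells received sepiapterin plus isotope-labelled Phenylalanine for 4 hours, then labelled Tyrosine in the medium was quantified, 10-point 2-fold dilution series run in duplicate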
Details: A375 cells expressing human R408W PAH; 24 hrs compound incubation; 13C-Tyrosine by LC-MS; average where tested multiple times; read-out: AC50

Compound | AC50 [µM]
O=C(c1ccnn1C(F)(F)F)N1CCc2[nH]cnc2[C@H]1c1cc2ccccn2n1 [Example 716, (S)-(4-(pyrazolo[1,5-a]pyridin-2-yl)-6,7-dihydro-1H-imidazo[4,5-c]pyridin-5(4H)-yl)(1-(trifluoromethyl)-1H-pyrazol-5-yl)methanone] | < 0.5
O=C(c1ccnn1C(F)(F)F)N1CCc2[nH]cnc2[C@@H]1c1cc2ccccn2n1 [Example 717, (R)-(4-(pyrazolo[1,5-a]pyridin-2-yl)-6,7-dihydro-1H-imidazo[4,5-c]pyridin-5(4H)-yl)(1-(trifluoromethyl)-1H-pyrazol-5-yl)methanone] | 0.5 to 1
CC(C)(O)c1nc(Cl)c(C(=O)N2CCc3[nH]cnc3[C@H]2c2cc3c(Cl)cccn3n2)o1 [Example 720, (S)-(4-chloro-2-(2-hydroxypropan-2-yl)oxazol-5-yl)(4-(4-chloropyrazolo[1,5-a]pyridin-2-yl)-6,7-dihydro-1H-imidazo[4,5-c]pyridin-5(4H)-yl)methanone] | < 0.5
CC(C)(O)c1nc(Cl)c(C(=O)N2CCc3[nH]cnc3[C@@H]2c2cc3c(Cl)cccn3n2)o1 [Example 721, (R)-(4-chloro-2-(2-hydroxypropan-2-yl)oxazol-5-yl)(4-(4-chloropyrazolo[1,5-a]pyridin-2-yl)-6,7-dihydro-1H-imidazo[4,5-c]pyridin-5(4H)-yl)methanone] | > 5
CC(C)(O)c1nc(Br)c(C(=O)N2CCc3[nH]cnc3[C@H]2c2cc3c(Cl)cccn3n2)o1 [Example 722, (S)-(4-bromo-2-(2-hydroxypropan-2-yl)oxazol-5-yl)(4-(4-chloropyrazolo[1,5-a]pyridin-2-yl)-6,7-dihydro-1H-imidazo[4,5-c]pyridin-5(4H)-yl)methanone] | < 0.5
CC(C)(O)c1nc(Br)c(C(=O)N2CCc3[nH]cnc3[C@@H]2c2cc3c(Cl)cccn3n2)o1 [Example 723, (R)-(4-bromo-2-(2-hydroxypropan-2-yl)oxazol-5-yl)(4-(4-chloropyrazolo[1,5-a]pyridin-2-yl)-6,7-dihydro-1H-imidazo[4,5-c]pyridin-5(4H)-yl)methanone] | 1 to 5
Cc1nc(C(C)(C)O)oc1C(=O)N1CCc2[nH]cnc2[C@H]1c1cc2c(Cl)cccn2n1 [Example 724, (S)-(4-(4-chloropyrazolo[1,5-a]pyridin-2-yl)-6,7-dihydro-1H-imidazo[4,5-c]pyridin-5(4H)-yl)(2-(2-hydroxypropan-2-yl)-4-methyloxazol-5-yl)methanone] | < 0.5
Cc1nc(C(C)(C)O)oc1C(=O)N1CCc2[nH]cnc2[C@@H]1c1cc2c(Cl)cccn2n1 [Example 725, (R)-(4-(4-chloropyrazolo[1,5-a]pyridin-2-yl)-6,7-dihydro-1H-imidazo[4,5-c]pyridin-5(4H)-yl)(2-(2-hydroxypropan-2-yl)-4-methyloxazol-5-yl)methanone] | > 5
Cc1nc([C@@H](C)O)oc1C(=O)N1CCc2[nH]cnc2[C@H]1c1cc2c(F)cccn2n1 [Example 726, ((S)-4-(4-fluoropyrazolo[1,5-a]pyridin-2-yl)-6,7-dihydro-1H-imidazo[4,5-c]pyridin-5(4H)-yl)(2-((R)-1-hydroxyethyl)-4-methyloxazol-5-yl)methanone] | 0.5 to 1
Cc1nc([C@@H](C)O)oc1C(=O)N1CCc2[nH]cnc2[C@@H]1c1cc2c(F)cccn2n1 [Example 727, ((R)-4-(4-fluoropyrazolo[1,5-a]pyridin-2-yl)-6,7-dihydro-1H-imidazo[4,5-c]pyridin-5(4H)-yl)(2-((R)-1-hydroxyethyl)-4-methyloxazol-5-yl)methanone] | 1 to 5
O=C(c1nnc(-c2ccccn2)o1)N1CCc2[nH]cnc2[C@@H]1c1cc2c(Cl)cccn2n1 [Example 734, (R)-(4-(4-chloropyrazolo[1,5-a]pyridin-2-yl)-6,7-dihydro-1H-imidazo[4,5-c]pyridin-5(4H)-yl)(5-(pyridin-2-yl)-1,3,4-oxadiazol-2-yl)methanone] | > 5
Cc1cccn2nc([C@@H]3c4nc[nH]c4CCN3C(=O)c3oc(C(C)(C)O)nc3C(F)F)cc12 [Example 736, (S)-(4-(difluoromethyl)-2-(2-hydroxypropan-2-yl)oxazol-5-yl)(4-(4-methylpyrazolo[1,5-a]pyridin-2-yl)-6,7-dihydro-1H-imidazo[4,5-c]pyridin-5(4H)-yl)methanone] | < 0.5
Cc1cccn2nc([C@H]3c4nc[nH]c4CCN3C(=O)c3oc(C(C)(C)O)nc3C(F)F)cc12 [Example 737, (R)-(4-(difluoromethyl)-2-(2-hydroxypropan-2-yl)oxazol-5-yl)(4-(4-methylpyrazolo[1,5-a]pyridin-2-yl)-6,7-dihydro-1H-imidazo[4,5-c]pyridin-5(4H)-yl)methanone] | 1 to 5
Cc1cccn2nc([C@@H]3c4nc[nH]c4CCN3C(=O)c3oc([C@@H](C)O)nc3C(F)F)cc12 [Example 738, (4-(difluoromethyl)-2-((R)-1-hydroxyethyl)oxazol-5-yl)((S)-4-(4-methylpyrazolo[1,5-a]pyridin-2-yl)-6,7-dihydro-1H-imidazo[4,5-c]pyridin-5(4H)-yl)methanone] | < 0.5
Cc1cccn2nc([C@H]3c4nc[nH]c4CCN3C(=O)c3oc([C@@H](C)O)nc3C(F)F)cc12 [Example 739, (4-(difluoromethyl)-2-((R)-1-hydroxyethyl)oxazol-5-yl)((R)-4-(4-methylpyrazolo[1,5-a]pyridin-2-yl)-6,7-dihydro-1H-imidazo[4,5-c]pyridin-5(4H)-yl)methanone] | 1 to 5
CC(C)(O)c1nc(C(F)(F)F)c(C(=O)N2CCc3[nH]cnc3[C@@H]2c2cc3c(F)cccn3n2)o1 [Example 745, (R)-(4-(4-fluoropyrazolo[1,5-a]pyridin-2-yl)-6,7-dihydro-1H-imidazo[4,5-c]pyridin-5(4H)-yl)(2-(2-hydroxypropan-2-yl)-4-(trifluoromethyl)oxazol-5-yl)methanone] | 1 to 5
CC(C)(O)c1nc(Br)c(C(=O)N2CCc3[nH]cnc3[C@H]2c2cc3c(F)cccn3n2)o1 [Example 746, (S)-(4-bromo-2-(2-hydroxypropan-2-yl)oxazol-5-yl)(4-(4-fluoropyrazolo[1,5-a]pyridin-2-yl)-6,7-dihydro-1H-imidazo[4,5-c]pyridin-5(4H)-yl)methanone] | < 0.5

Next, values leading:

AC50 [µM] | Compound
< 0.5 | Cn1ccc(-c2nnc(C(=O)N3CCc4[nH]cnc4[C@H]3c3cc4c(Cl)cccn4n3)o2)n1 [Example 718, (S)-(4-(4-chloropyrazolo[1,5-a]pyridin-2-yl)-6,7-dihydro-1H-imidazo[4,5-c]pyridin-5(4H)-yl)(5-(1-methyl-1H-pyrazol-3-yl)-1,3,4-oxadiazol-2-yl)methanone]
> 5 | Cn1ccc(-c2nnc(C(=O)N3CCc4[nH]cnc4[C@@H]3c3cc4c(Cl)cccn4n3)o2)n1 [Example 719, (R)-(4-(4-chloropyrazolo[1,5-a]pyridin-2-yl)-6,7-dihydro-1H-imidazo[4,5-c]pyridin-5(4H)-yl)(5-(1-methyl-1H-pyrazol-3-yl)-1,3,4-oxadiazol-2-yl)methanone]
< 0.5 | Cn1cc(-c2nnc(C(=O)N3CCc4[nH]cnc4[C@H]3c3cc4c(F)cccn4n3)o2)cn1 [Example 728, (S)-(4-(4-fluoropyrazolo[1,5-a]pyridin-2-yl)-6,7-dihydro-1H-imidazo[4,5-c]pyridin-5(4H)-yl)(5-(1-methyl-1H-pyrazol-4-yl)-1,3,4-oxadiazol-2-yl)methanone]
> 5 | Cn1ccc(-c2nnc(C(=O)N3CCc4[nH]cnc4[C@@H]3c3cc4c(F)cccn4n3)o2)n1 [Example 731, (R)-(4-(4-fluoropyrazolo[1,5-a]pyridin-2-yl)-6,7-dihydro-1H-imidazo[4,5-c]pyridin-5(4H)-yl)(5-(1-methyl-1H-pyrazol-3-yl)-1,3,4-oxadiazol-2-yl)methanone]
< 0.5 | O=C(c1nnc(-c2ccccn2)o1)N1CCc2[nH]cnc2[C@H]1c1cc2c(F)cccn2n1 [Example 733, (S)-(4-(4-fluoropyrazolo[1,5-a]pyridin-2-yl)-6,7-dihydro-1H-imidazo[4,5-c]pyridin-5(4H)-yl)(5-(pyridin-2-yl)-1,3,4-oxadiazol-2-yl)methanone]
< 0.5 | O=C(c1nnc(-c2ccccn2)o1)N1CCc2[nH]cnc2[C@H]1c1cc2c(Cl)cccn2n1 [Example 735, (S)-(4-(4-chloropyrazolo[1,5-a]pyridin-2-yl)-6,7-dihydro-1H-imidazo[4,5-c]pyridin-5(4H)-yl)(5-(pyridin-2-yl)-1,3,4-oxadiazol-2-yl)methanone]
> 5 | Cc1cccn2nc([C@H]3c4nc[nH]c4CCN3C(=O)c3nnc(-c4ccccn4)o3)cc12 [Example 740, (R)-(4-(4-methylpyrazolo[1,5-a]pyridin-2-yl)-6,7-dihydro-1H-imidazo[4,5-c]pyridin-5(4H)-yl)(5-(pyridin-2-yl)-1,3,4-oxadiazol-2-yl)methanone]
< 0.5 | Cc1cccn2nc([C@@H]3c4nc[nH]c4CCN3C(=O)c3nnc(-c4ccccn4)o3)cc12 [Example 741, (S)-(4-(4-methylpyrazolo[1,5-a]pyridin-2-yl)-6,7-dihydro-1H-imidazo[4,5-c]pyridin-5(4H)-yl)(5-(pyridin-2-yl)-1,3,4-oxadiazol-2-yl)methanone]
< 0.5 | Cc1cccn2nc([C@@H]3c4nc[nH]c4CCN3C(=O)c3nnc(-c4ccn(C)n4)o3)cc12 [Example 743, (S)-(5-(1-methyl-1H-pyrazol-3-yl)-1,3,4-oxadiazol-2-yl)(4-(4-methylpyrazolo[1,5-a]pyridin-2-yl)-6,7-dihydro-1H-imidazo[4,5-c]pyridin-5(4H)-yl)methanone]
